Test results published in patent US20240208992A1, “MACROCYCLES AS CFTR MODULATORS” (Idorsia Pharmaceuticals Ltd, priority 2021, published 2024).

Target: human F508del-CFTR (Homo sapiens, UniProt P13569, DEL508-508)
Assay: F508del-CFTR cell surface expression (corrector activity), DiscoveRx ß-galactosidase complementation chemiluminescence assay in recombinant U2OS cell line;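 further: U2OS cells co-expressing ProLink-tagged F508del-CFTR and a membrane-anchored enzyme acceptor, where more surface CFTR restores β-galactosidase activity measured by chemiluminescence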
Conditions: for EC50: EC50, F508del-CFTR cell surface expression; for Emax: U2OS
[1] = U2OS cells, 16h compound incubation, geomean values
[2] = in relation to Emax of corrector lumacaftor (=100%), arithmetic mean values
[3] = U2OS cells, 16h compound incubation, geomean of several measurements
[4] = in relation to the Emax of the corrector lumacaftor (=100%), U2OS cells, 16h compound incubation, arithmetic mean
[5] = U2OS cell line, 16h compound incubation, geomean values
[6] = in relation to the Emax of the corrector lumacaftor (=100%), U2OS cell line, 16h compound incubation, arithmetic mean values

Sequence of human F508del-CFTR (P13569 with tags, fused parts or gaps DEL508-508): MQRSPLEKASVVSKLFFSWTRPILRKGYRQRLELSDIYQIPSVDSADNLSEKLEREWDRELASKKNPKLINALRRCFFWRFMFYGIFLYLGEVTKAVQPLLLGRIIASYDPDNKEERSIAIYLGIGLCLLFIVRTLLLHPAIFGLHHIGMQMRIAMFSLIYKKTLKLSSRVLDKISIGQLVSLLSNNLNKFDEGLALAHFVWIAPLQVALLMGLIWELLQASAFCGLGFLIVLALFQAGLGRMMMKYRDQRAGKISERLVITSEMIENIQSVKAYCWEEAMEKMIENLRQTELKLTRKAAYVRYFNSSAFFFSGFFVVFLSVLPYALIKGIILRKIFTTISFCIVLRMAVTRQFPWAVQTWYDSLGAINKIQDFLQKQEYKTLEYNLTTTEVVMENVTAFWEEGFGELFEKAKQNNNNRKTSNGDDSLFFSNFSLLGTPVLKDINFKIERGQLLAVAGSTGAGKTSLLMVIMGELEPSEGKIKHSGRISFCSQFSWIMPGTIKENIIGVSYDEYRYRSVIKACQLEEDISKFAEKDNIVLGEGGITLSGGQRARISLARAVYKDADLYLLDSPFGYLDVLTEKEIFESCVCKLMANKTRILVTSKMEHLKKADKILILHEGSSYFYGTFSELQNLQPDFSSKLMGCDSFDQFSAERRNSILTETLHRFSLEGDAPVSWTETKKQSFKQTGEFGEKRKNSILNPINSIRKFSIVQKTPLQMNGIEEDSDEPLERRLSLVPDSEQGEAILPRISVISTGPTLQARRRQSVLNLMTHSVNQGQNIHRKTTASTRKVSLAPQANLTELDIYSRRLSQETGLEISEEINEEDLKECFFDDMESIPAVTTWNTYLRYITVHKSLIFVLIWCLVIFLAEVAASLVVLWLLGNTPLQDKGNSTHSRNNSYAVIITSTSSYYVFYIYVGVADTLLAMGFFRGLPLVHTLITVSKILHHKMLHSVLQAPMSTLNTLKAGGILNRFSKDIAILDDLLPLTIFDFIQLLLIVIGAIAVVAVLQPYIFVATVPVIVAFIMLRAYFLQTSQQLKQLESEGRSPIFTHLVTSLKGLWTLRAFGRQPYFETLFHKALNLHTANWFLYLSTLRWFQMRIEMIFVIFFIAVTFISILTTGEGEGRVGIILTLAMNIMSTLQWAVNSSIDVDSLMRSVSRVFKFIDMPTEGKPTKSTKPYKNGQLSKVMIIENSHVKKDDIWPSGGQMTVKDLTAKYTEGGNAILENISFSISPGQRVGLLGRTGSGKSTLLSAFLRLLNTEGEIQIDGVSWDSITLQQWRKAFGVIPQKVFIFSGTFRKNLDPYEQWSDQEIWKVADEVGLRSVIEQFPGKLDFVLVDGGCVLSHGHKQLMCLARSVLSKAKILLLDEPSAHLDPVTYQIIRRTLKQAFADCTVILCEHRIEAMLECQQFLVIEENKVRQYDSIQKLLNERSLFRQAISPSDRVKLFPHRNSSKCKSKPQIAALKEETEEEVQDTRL

SMILES | EC50 [1] | Emax [2] | EC50 [5] | Emax [6] | also measured
COc1cccc(CCNC(=O)[C@@H]2CC(=O)N(C)[C@@H](CC(C)C)C(=O)N3CCN(c4ccccc4)C[C@@H]3C(=O)N[C@H](Cc3ccccc3)COc3ccc4nc(C)oc4c3C(=O)N2)c1 [Example 536, (8S,12S,18aR,21R)-21-benzyl-12-isobutyl-N-(3-methoxyphenethyl)-4,11-dimethyl-6,10,13,19-tetraoxo-17-phenyl-6,7,8,9,10,11,12,13,16,17,18,18a,19,20,21,22-hexadecahydro-15H-oxazolo[4′,5′:5,6]benzo[1,2-p]pyrazino[2,1-f][1]oxa[4,7,10,14]tetraazacycloheptadecine-8-carboxamide] | 175 nM | 358% | – | – | –
Cc1cc2c3c(ccc2cn1)OC[C@@H](Cc1ccccc1)NC(=O)[C@@H](Cc1nc(-c2ccc(F)cn2)no1)N(C)C(=O)[C@H](CC(C)C)N(C)C(=O)C[C@@H](C(=O)NCCc1noc(C2CC2)n1)NC3=O [Example 905] | – | – | – | – | EC50 [3]: 311 nM; Emax [4]: 415%
COc1nccc2c1C(=O)N[C@H](C(=O)NCCc1noc(C3CC3)n1)CC(=O)N(C)[C@@H](CC(C)C)C(=O)N1CCCC[C@@H]1C(=O)N[C@H](Cc1ccccc1)CO2 [Example 483, (7S,11S,17aR,20R)-20-benzyl-N-(2-(5-cyclopropyl-1,2,4-oxadiazol-3-yl)ethyl)-11-isobutyl-4-methoxy-10-methyl-5,9,12,18-tetraoxo-5,6,7,8,9,10,11,12,15,16,17,17a,18,19,20,21-hexadecahydro-14H-dipyrido[2,1-f:3′,4′-p][1]oxa[4,7,10,14]tetraazacycloheptadecine-7-carboxamide] | 517 nM | 311% | – | – | –
COc1cc(OC)c2c(c1)OC[C@@H](Cc1ccccc1)NC(=O)CN(CCC1CCCCC1)C(=O)[C@H](CC(C)C)N(C)C(=O)C[C@@H](C(=O)NCCc1ccc3c(c1)OCCC3)NC2=O [Example 275, (3R,9S,13S)-3-benzyl-N-(2-(chroman-7-yl)ethyl)-7-(2-cyclohexylethyl)-9-isobutyl-16,18-dimethoxy-10-methyl-5,8,11,15-tetraoxo-2,3,4,5,6,7,8,9,10,11,12,13,14,15-tetradecahydrobenzo[p][1]oxa[4,7,10,14]tetraazacycloheptadecine-13-carboxamide] | – | – | 148 nM | 333% | –
CN1C(=O)C[C@@H](C(=O)NCCc2ccc3c(c2)OCO3)NC(=O)c2c(ccc3ccccc23)OC[C@@H](Cc2ccccc2)NC(=O)CN(CC[C@@H]2CCCCO2)C(=O)[C@@H]1CC1CC1 [Example 358, (3S,7S,13R)-N-(2-(benzo[d][1,3]dioxol-5-yl)ethyl)-13-benzyl-7-(cyclopropylmethyl)-6-methyl-1,5,8,11-tetraoxo-9-(2-((S)-tetrahydro-2H-pyran-2-yl)ethyl)-1,2,3,4,5,6,7,8,9,10,11,12,13,14-tetradecahydronaphtho[1,2-p][1]oxa[4,7,10,14]tetraazacycloheptadecine-3-carboxamide] | – | – | 411 nM | 171% | –
Cc1cc(CCNC(=O)[C@@H]2CC(=O)N(C)[C@@H](CC(C)C)C(=O)N(C)[C@H](Cc3ccccc3)C(=O)N[C@H](Cc3ccccc3)COc3cnc4ccc(F)cc4c3C(=O)N2)on1 [Example 722, (3S,7S,10R,13R)-10,13-Dibenzyl-20-fluoro-7-isobutyl-6,9-dimethyl-N-(2-(3-methylisoxazol-5-yl)ethyl)-1,5,8,11-tetraoxo-1,2,3,4,5,6,7,8,9,10,11,12,13,14-tetradecahydro-[1]oxa[4,7,10,14]tetraazacycloheptadecino[17,16-c]quinoline-3-carboxamide] | 101 nM | 347% | – | – | –
COc1cccc2c1C(=O)N[C@H](C(=O)NCCc1ccc3c(c1)OCCO3)CC(=O)N(C)[C@@H](CC(C)C)C(=O)N(CCC1CCCCC1)CC(=O)N[C@H](Cc1ccccc1)CO2 [Example 149, (3R,9S,13S)-3-benzyl-7-(2-cyclohexylethyl)-N-(2-(2,3-dihydrobenzo[b][1,4]dioxin-6-yl)ethyl)-9-isobutyl-16-methoxy-10-methyl-5,8,11,15-tetraoxo-2,3,4,5,6,7,8,9,10,11,12,13,14,15-tetradecahydrobenzo[p][1]oxa[4,7,10,14]tetraazacycloheptadecine-13-carboxamide] | – | – | 191 nM | 259% | –
COCCCCCNC(=O)[C@@H]1CC(=O)N(C)[C@@H](CC(C)C)C(=O)N(CCC2CCCCC2)CC(=O)N[C@H](Cc2ccccc2)COc2cccc(OC)c2C(=O)N1 [Example 216, (3R,9S,13S)-3-benzyl-7-(2-cyclohexylethyl)-9-isobutyl-16-methoxy-N-(5-methoxypentyl)-10-methyl-5,8,11,15-tetraoxo-2,3,4,5,6,7,8,9,10,11,12,13,14,15-tetradecahydrobenzo[p][1]oxa[4,7,10,14]tetraazacycloheptadecine-13-carboxamide] | – | – | 420 nM | 102% | –
COc1cccc2c1C(=O)N[C@H](C(=O)NCCc1ccc3c(c1)OCO3)CC(=O)N(C)[C@@H](CC1CCCCC1)C(=O)N(C[C@@H]1CCCCO1)CC(=O)N[C@H](Cc1ccccc1)CO2 [Example 309, (3R,9S,13S)-N-(2-(benzo[d][1,3]dioxol-5-yl)ethyl)-3-benzyl-9-(cyclohexylmethyl)-16-methoxy-10-methyl-5,8,11,15-tetraoxo-7-(((S)-tetrahydro-2H-pyran-2-yl)methyl)-2,3,4,5,6,7,8,9,10,11,12,13,14,15-tetradecahydrobenzo[p][1]oxa[4,7,10,14]tetraazacycloheptadecine-13-carboxamide] | – | – | 456 nM | 113% | –
Cc1cc(CCNC(=O)[C@@H]2CC(=O)N(C)[C@@H](CC(C)C)C(=O)N(C)[C@H](C3CCCC3)C(=O)N[C@H](Cc3ccccc3)COc3cnc4ccc(F)cc4c3C(=O)N2)on1 [Example 721, (3S,7S,10R,13R)-13-benzyl-10-cyclopentyl-20-fluoro-7-isobutyl-6,9-dimethyl-N-(2-(3-methylisoxazol-5-yl)ethyl)-1,5,8,11-tetraoxo-1,2,3,4,5,6,7,8,9,10,11,12,13,14-tetradecahydro-[1]oxa[4,7,10,14]tetraazacycloheptadecino[17,16-c]quinoline-3-carboxamide] | 142 nM | 328% | – | – | –
CC(C)C[C@H]1C(=O)N2CCCC[C@@H]2C(=O)N[C@H](Cc2ccccc2)COc2cnc3c(F)cccc3c2C(=O)N[C@H](C(=O)NCCc2cc(C3CC3)on2)CC(=O)N1C [Example 638, (9S,13S,19aR,22R)-22-benzyl-N-(2-(5-cyclopropylisoxazol-3-yl)ethyl)-3-fluoro-13-isobutyl-12-methyl-7,11,14,20-tetraoxo-7,8,9,10,11,12,13,14,17,18,19,19a,20,21,22,23-hexadecahydro-16H-pyrido[2′,11:6,7][1]oxa[4,7,10,14]tetraazacycloheptadecino[17,16-c]quinoline-9-carboxamide] | 182 nM | 297% | – | – | –
Cc1cccc2c1C(=O)N[C@H](C(=O)NCCc1ccc3c(c1)OCO3)CC(=O)N(C)[C@@H](CC(C)C)C(=O)N(C)CC(=O)N[C@H](Cc1ccccc1)CO2 [Example 235, (3R,9S,13S)-N-(2-(benzo[d][1,3]dioxol-5-yl)ethyl)-3-benzyl-9-isobutyl-7,10,16-trimethyl-5,8,11,15-tetraoxo-2,3,4,5,6,7,8,9,10,11,12,13,14,15-tetradecahydrobenzo[p][1]oxa[4,7,10,14]tetraazacycloheptadecine-13-carboxamide] | – | – | 825 nM | 117% | –
COc1cc(CCNC(=O)[C@@H]2CC(=O)N(C)[C@@H](CC(C)C)C(=O)N(C)[C@H](Cc3nc(C(F)(F)F)no3)C(=O)N[C@H](Cc3ccccc3)COc3c[n+]([O-])c4ccc(F)cc4c3C(=O)N2)on1 [Example 981, (3S,7S,10R,13R)-13-benzyl-20-fluoro-7-isobutyl-3-((2-(3-methoxyisoxazol-5-yl)ethyl)carbamoyl)-6,9-dimethyl-1,5,8,11-tetraoxo-10-((3-(trifluoromethyl)-1,2,4-oxadiazol-5-yl)methyl)-1,2,3,4,5,6,7,8,9,10,11,12,13,14-tetradecahydro-[1]oxa[4,7,10,14]tetraazacycloheptadecino[17,16-c]quinoline 17-oxide] | – | – | – | – | EC50 [3]: 133 nM; Emax [4]: 448%
CC(C)C[C@H]1C(=O)N(C)C2(CC2)C(=O)N[C@H](Cc2ccccc2)COc2cnc3ccc(F)cc3c2C(=O)N[C@H](C(=O)NCCc2cc(C3CC3)no2)CC(=O)N1C [Example 519, (3′S,7′S,13′R)-13′-benzyl-N-(2-(3-cyclopropylisoxazol-5-yl)ethyl)-20′-fluoro-7′-isobutyl-6′,9′-dimethyl-1′,5′,8′,11′-tetraoxo-2′,3′,4′,5′,6′,7′,8′,9′,11′,12′,13′,14′-dodecahydro-1′H-spiro[cyclopropane-1,10′-[1]oxa[4,7,10,14]tetraazacycloheptadecino[17,16-c]quinoline]-3′-carboxamide] | 184 nM | 332% | – | – | –
Cc1cc(CCNC(=O)[C@@H]2CC(=O)N(C)[C@@H](CC(C)C)C(=O)N3CCN(S(=O)(=O)c4cccc(OC(F)(F)F)c4)C[C@@H]3C(=O)N[C@H](Cc3ccccc3)COc3cnc4ccccc4c3C(=O)N2)on1 [Example 749, (9S,13S,19aR,22R)-22-benzyl-13-isobutyl-12-methyl-N-(2-(3-methylisoxazol-5-yl)ethyl)-7,11,14,20-tetraoxo-18-((3-(trifluoromethoxy)phenyl)sulfonyl)-7,8,9,10,11,12,13,14,17,18,19,19a,20,21,22,23-hexadecahydro-16H-pyrazino[2′,1′:6,7][1]oxa[4,7,10,14]tetraazacycloheptadecino[17,16-c]quinoline-9-carboxamide] | 153 nM | 301% | – | – | –
